± gives the uncertainty stated by the source.
Experiment: xn = mol fraction of the nth substance listed

CCCCCCCCCCCCCC[P+](CCCCCC)(CCCCCC)CCCCCC.N#C[N-]C#N + CCCCCCCCCCCC
viscosity (303.15 K, 101 kPa, x1 = 1): 328 ± 16 mPa·s
viscosity (308.15 K, 101 kPa, x1 = 0.5534): 90 ± 3 mPa·s
viscosity (313.15 K, 101 kPa, x1 = 0.736): 112 ± 4 mPa·s
viscosity (323.15 K, 101 kPa, x1 = 0.5534): 47.4 ± 1.5 mPa·s
viscosity (323.15 K, 101 kPa, x1 = 0.736): 72.7 ± 2.4 mPa·s
viscosity (323.15 K, 101 kPa, x1 = 1): 123 ± 5 mPa·s
viscosity (328.15 K, 101 kPa, x1 = 0.5534): 39.2 ± 1.2 mPa·s
viscosity (328.15 K, 101 kPa, x1 = 0.736): 60 ± 1.9 mPa·s
viscosity (343.15 K, 101 kPa, x1 = 0.5534): 24.2 ± 0.7 mPa·s
viscosity (353.15 K, 101 kPa, x1 = 1): 41 ± 1.4 mPa·s

CCCCC[N+](CCCCC)(CCCCC)CCCCC.[Br-] + CCCCCCCCCCCCOS(=O)(=O)[O-].[Na+] + O
viscosity (293.15 K, 100 kPa, x2 = 1.81e-06, x1 = 0.0001802): 1.024 ± 0.027 mPa·s
viscosity (293.15 K, 100 kPa, x2 = 3.62e-06, x1 = 0.0001802): 1.026 ± 0.027 mPa·s
viscosity (293.15 K, 100 kPa, x2 = 5.43e-06, x1 = 0.0001802): 1.027 ± 0.027 mPa·s
viscosity (293.15 K, 100 kPa, x2 = 7.23e-06, x1 = 0.0001802): 1.028 ± 0.027 mPa·s
viscosity (293.15 K, 100 kPa, x2 = 9.04e-06, x1 = 0.0001802): 1.028 ± 0.027 mPa·s
viscosity (293.15 K, 100 kPa, x2 = 1.085e-05, x1 = 0.0001802): 1.029 ± 0.027 mPa·s
viscosity (293.15 K, 100 kPa, x2 = 1.266e-05, x1 = 0.0001802): 1.029 ± 0.027 mPa·s
viscosity (293.15 K, 100 kPa, x2 = 1.447e-05, x1 = 0.0001802): 1.029 ± 0.027 mPa·s
viscosity (293.15 K, 100 kPa, x2 = 1.628e-05, x1 = 0.0001802): 1.03 ± 0.027 mPa·s
viscosity (293.15 K, 100 kPa, x2 = 1.808e-05, x1 = 0.0001802): 1.03 ± 0.027 mPa·s
viscosity (298.15 K, 100 kPa, x2 = 1.81e-06, x1 = 0.0001802): 0.914 ± 0.027 mPa·s
viscosity (298.15 K, 100 kPa, x2 = 3.62e-06, x1 = 0.0001802): 0.916 ± 0.027 mPa·s
viscosity (298.15 K, 100 kPa, x2 = 5.43e-06, x1 = 0.0001802): 0.917 ± 0.027 mPa·s
viscosity (298.15 K, 100 kPa, x2 = 7.23e-06, x1 = 0.0001802): 0.917 ± 0.027 mPa·s
viscosity (298.15 K, 100 kPa, x2 = 9.04e-06, x1 = 0.0001802): 0.919 ± 0.027 mPa·s
viscosity (298.15 K, 100 kPa, x2 = 1.085e-05, x1 = 0.0001802): 0.92 ± 0.027 mPa·s
viscosity (298.15 K, 100 kPa, x2 = 1.266e-05, x1 = 0.0001802): 0.921 ± 0.027 mPa·s
viscosity (298.15 K, 100 kPa, x2 = 1.447e-05, x1 = 0.0001802): 0.921 ± 0.027 mPa·s
viscosity (298.15 K, 100 kPa, x2 = 1.628e-05, x1 = 0.0001802): 0.922 ± 0.027 mPa·s
viscosity (298.15 K, 100 kPa, x2 = 1.808e-05, x1 = 0.0001802): 0.922 ± 0.027 mPa·s
viscosity (303.15 K, 100 kPa, x2 = 1.81e-06, x1 = 0.0001802): 0.8 ± 0.027 mPa·s
viscosity (303.15 K, 100 kPa, x2 = 3.62e-06, x1 = 0.0001802): 0.801 ± 0.027 mPa·s
viscosity (303.15 K, 100 kPa, x2 = 5.43e-06, x1 = 0.0001802): 0.802 ± 0.027 mPa·s
viscosity (303.15 K, 100 kPa, x2 = 7.23e-06, x1 = 0.0001802): 0.803 ± 0.027 mPa·s
viscosity (303.15 K, 100 kPa, x2 = 9.04e-06, x1 = 0.0001802): 0.803 ± 0.027 mPa·s
viscosity (303.15 K, 100 kPa, x2 = 1.085e-05, x1 = 0.0001802): 0.803 ± 0.027 mPa·s
viscosity (303.15 K, 100 kPa, x2 = 1.266e-05, x1 = 0.0001802): 0.803 ± 0.027 mPa·s
viscosity (303.15 K, 100 kPa, x2 = 1.447e-05, x1 = 0.0001802): 0.803 ± 0.027 mPa·s
viscosity (303.15 K, 100 kPa, x2 = 1.628e-05, x1 = 0.0001802): 0.804 ± 0.027 mPa·s
viscosity (303.15 K, 100 kPa, x2 = 1.808e-05, x1 = 0.0001802): 0.805 ± 0.027 mPa·s
viscosity (308.15 K, 100 kPa, x2 = 1.81e-06, x1 = 0.0001802): 0.723 ± 0.026 mPa·s
viscosity (308.15 K, 100 kPa, x2 = 3.62e-06, x1 = 0.0001802): 0.723 ± 0.026 mPa·s
viscosity (308.15 K, 100 kPa, x2 = 5.43e-06, x1 = 0.0001802): 0.724 ± 0.026 mPa·s
viscosity (308.15 K, 100 kPa, x2 = 7.23e-06, x1 = 0.0001802): 0.724 ± 0.026 mPa·s
viscosity (308.15 K, 100 kPa, x2 = 9.04e-06, x1 = 0.0001802): 0.724 ± 0.026 mPa·s
viscosity (308.15 K, 100 kPa, x2 = 1.085e-05, x1 = 0.0001802): 0.724 ± 0.026 mPa·s
viscosity (308.15 K, 100 kPa, x2 = 1.266e-05, x1 = 0.0001802): 0.725 ± 0.026 mPa·s
viscosity (308.15 K, 100 kPa, x2 = 1.447e-05, x1 = 0.0001802): 0.725 ± 0.026 mPa·s
viscosity (308.15 K, 100 kPa, x2 = 1.628e-05, x1 = 0.0001802): 0.726 ± 0.026 mPa·s
viscosity (308.15 K, 100 kPa, x2 = 1.808e-05, x1 = 0.0001802): 0.726 ± 0.026 mPa·s
viscosity (313.15 K, 100 kPa, x2 = 1.81e-06, x1 = 0.0001802): 0.658 ± 0.026 mPa·s
viscosity (313.15 K, 100 kPa, x2 = 3.62e-06, x1 = 0.0001802): 0.659 ± 0.026 mPa·s
viscosity (313.15 K, 100 kPa, x2 = 5.43e-06, x1 = 0.0001802): 0.66 ± 0.026 mPa·s
viscosity (313.15 K, 100 kPa, x2 = 7.23e-06, x1 = 0.0001802): 0.66 ± 0.026 mPa·s
viscosity (313.15 K, 100 kPa, x2 = 9.04e-06, x1 = 0.0001802): 0.661 ± 0.026 mPa·s
viscosity (313.15 K, 100 kPa, x2 = 1.085e-05, x1 = 0.0001802): 0.661 ± 0.026 mPa·s
viscosity (313.15 K, 100 kPa, x2 = 1.266e-05, x1 = 0.0001802): 0.661 ± 0.026 mPa·s
viscosity (313.15 K, 100 kPa, x2 = 1.447e-05, x1 = 0.0001802): 0.661 ± 0.026 mPa·s
viscosity (313.15 K, 100 kPa, x2 = 1.628e-05, x1 = 0.0001802): 0.662 ± 0.026 mPa·s
viscosity (313.15 K, 100 kPa, x2 = 1.808e-05, x1 = 0.0001802): 0.662 ± 0.026 mPa·s
viscosity (318.15 K, 100 kPa, x2 = 1.81e-06, x1 = 0.0001802): 0.604 ± 0.026 mPa·s
viscosity (318.15 K, 100 kPa, x2 = 3.62e-06, x1 = 0.0001802): 0.605 ± 0.026 mPa·s
viscosity (318.15 K, 100 kPa, x2 = 5.43e-06, x1 = 0.0001802): 0.605 ± 0.026 mPa·s
viscosity (318.15 K, 100 kPa, x2 = 7.23e-06, x1 = 0.0001802): 0.605 ± 0.026 mPa·s
viscosity (318.15 K, 100 kPa, x2 = 9.04e-06, x1 = 0.0001802): 0.606 ± 0.026 mPa·s
viscosity (318.15 K, 100 kPa, x2 = 1.085e-05, x1 = 0.0001802): 0.606 ± 0.026 mPa·s
viscosity (318.15 K, 100 kPa, x2 = 1.266e-05, x1 = 0.0001802): 0.606 ± 0.026 mPa·s
viscosity (318.15 K, 100 kPa, x2 = 1.447e-05, x1 = 0.0001802): 0.606 ± 0.026 mPa·s
viscosity (318.15 K, 100 kPa, x2 = 1.628e-05, x1 = 0.0001802): 0.606 ± 0.026 mPa·s
viscosity (318.15 K, 100 kPa, x2 = 1.808e-05, x1 = 0.0001802): 0.606 ± 0.026 mPa·s

— the CheMixHub ionic liquid set
